Broadly, the IC50 is the concentration that inhibits the measured activity by half.

For data set [1], the system named is drug resistant human non-small cell lung carcinoma cell line COR-L23/R which overexpresses multidrug resistance associated protein (MRP). Nature of the data set: Cytotoxicity, drug resistant COR-L23/R cell line (SRB assay). The note with it: for Rf (resistance factor): IC50 in L23/R divided by IC50 in L23/P, MRP-dependant MDR; for IC50: concentration required to give 50% cell kill, 5–6 days incubation. Format: cell-based. The protocol: (§1) The cytotoxicity of the compounds described herein was also measured using the COR-L23 parental (COR-L23/P) human non-small cell lung carcinoma cell line and also the drug resistant human non-small cell lung carcinoma cell line COR-L23/R which overexpresses multidrug resistance associated protein (MRP). The cytotoxicity, as measured by the IC50 (concentration required to give 50% cell kill) in the L23/R cell line divided by the cytotoxicity in the L23/P cell line gives an indication of the degree to which a compound may be affected by MRP-dependant MDR and is termed the resistance factor (Rf) of the compound.
(§2) L23/P and L23/R cells were pipetted into 96-well tissue culture plates and then allowed to incubate at 37° C. for 4 h. […] The plates were incubated for 5–6 days before proliferation was assessed using the sulphurhodamine B (SRB) assay as described by Skehan et al, J Natl Cancer Inst 1990, 82, pp 1107–1112.
In general terms: Sulforhodamine B stains cellular protein and so reports cell mass.

Experiment in data set [2]: as above
The note with it: Homo sapiens, COR-L23/R; concentration required to give 50% cell kill; 5–6 days incubation. It counts as cell-based, human. The protocol:
as §1, §2

Data set [3] has as its system amsacrine-resistant Jurkat human leukaemia cell line (JLA). Nature of the data set: Cytotoxicity, amsacrine-resistant Jurkat cell line JLA. The settings on record: for IC50: concentration required to give 50% cell kill; for Rf (JLA/JLC): IC50 in JLA divided by IC50 in JLC, atypical drug resistance. Format: cell-based. The protocol: (§3) The cytotoxicity of the compounds described herein was also measured using the Jurkat human leukaemia cell line (JLC) and also the amsacrine-resistant Jurkat human leukaemia cell line (JLA) and the doxorubicin-resistant Jurkat human leukaemia cell line (JLD). The cytotoxicity, as measured by the IC50 (concentration required to give 50% cell kill) in the JLA or JLD cell line divided by the cytotoxicity in the JLC cell line gives an indication of the degree to which a compound may be affected by atypical drug resistance and is termed the resistance factor (Rf) of the compound. The method used has been described previously (Finlay et al, Eur J. Cancer 32A, 708–714, 1996). Compounds were active in the range 1 nM to 5 μM.

The test system of data set [4] is drug resistant human small cell lung carcinoma cell line H69/LX4 which overexpresses P-glycoprotein (Pgp). Put plainly: Cytotoxicity, drug resistant H69/LX4 cell line (AlamarBlue). It counts as cell-based. The note with it: for IC50: concentration required to give 50% cell kill, 5–6 days incubation; for Rf (resistance factor): IC50 in H69/LX4 divided by IC50 in H69/P, Pgp-dependent MDR. The method, then:
(§4) The cytotoxicity of compounds of formula (I) was measured using the H69 parental (H69/P) human small cell lung carcinoma cell line and the drug resistant human small cell lung carcinoma cell line H69/LX4 which overexpresses P-glycoprotein (Pgp). The cytotoxicity, as measured by the IC50 (concentration required to give 50% cell kill) in the H69/LX4 cell line divided by the cytotoxicity in the H69/P cell line gives an indication of the degree to which a compound is affected by Pgp-dependent MDR and is termed the resistance factor (Rf) of the compound.
(§5) H69/P and H69/LX4 cells were pipetted into 96-well tissue culture plates and then allowed to incubate at 37° C. for 4 h. […] The plates were incubated for 5–6 days before adding AlamarBlue to each well and returning the plates to the incubator for 5–8 h to allow colour development. The cell numbers in the plates at the end of this period were directly proportional to the absorbance measured at a wavelength of 570 nm (reference wavelength 600 nm).

Data set [5] deals with Jurkat human leukaemia cell line (JLC). Put plainly: Cytotoxicity, Jurkat leukaemia cell line JLC. It counts as cell-based. The settings on record: concentration required to give 50% cell kill. The method, then:
as §3

Data set [6] has as its system COR-L23 parental (COR-L23/P) human non-small cell lung carcinoma cell line. Nature of the data set: Cytotoxicity, COR-L23 parental cell line (SRB assay). Format: cell-based. The settings on record: concentration required to give 50% cell kill, 5–6 days incubation. The protocol: as §1, §2
The target of data set [7] is T1, topoisomerase I (Homo sapiens, UniProt P11387).
T1 sequence (P11387 1-765): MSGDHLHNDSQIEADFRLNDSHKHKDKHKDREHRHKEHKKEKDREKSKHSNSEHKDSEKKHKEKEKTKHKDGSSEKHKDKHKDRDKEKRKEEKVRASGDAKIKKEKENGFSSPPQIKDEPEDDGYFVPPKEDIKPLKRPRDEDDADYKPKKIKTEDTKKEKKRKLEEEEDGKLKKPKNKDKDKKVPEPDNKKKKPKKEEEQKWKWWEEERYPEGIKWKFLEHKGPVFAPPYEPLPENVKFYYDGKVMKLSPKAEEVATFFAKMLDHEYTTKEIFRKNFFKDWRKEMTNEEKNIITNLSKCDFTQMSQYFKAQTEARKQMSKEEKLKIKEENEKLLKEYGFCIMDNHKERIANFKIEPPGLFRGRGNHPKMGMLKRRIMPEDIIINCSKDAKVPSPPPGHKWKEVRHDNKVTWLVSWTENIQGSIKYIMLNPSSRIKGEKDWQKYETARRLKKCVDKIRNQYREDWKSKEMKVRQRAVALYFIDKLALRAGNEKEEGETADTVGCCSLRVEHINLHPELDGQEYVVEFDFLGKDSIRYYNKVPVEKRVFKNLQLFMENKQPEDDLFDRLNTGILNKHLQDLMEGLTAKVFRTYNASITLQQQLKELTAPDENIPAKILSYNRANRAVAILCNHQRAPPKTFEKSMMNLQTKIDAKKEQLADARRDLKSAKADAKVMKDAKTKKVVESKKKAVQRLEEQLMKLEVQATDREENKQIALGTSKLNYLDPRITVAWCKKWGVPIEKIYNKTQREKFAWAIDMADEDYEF
Put plainly: Stabilisation of cleavable complexes, topoisomerase I. Format: biochemical. The settings on record: range where an increase in cleavable complexes was observed relative to controls in the absence of drug. The source says: (§6) Compounds were also studied for their ability to stabilize cleavable complexes in the presence of either topoisomerase I or II essentially as described previously (Finlay et al, Eur J. Cancer 32A, 708–714, 1996). Presence of cleavable complexes was indicated by an increase in the number and intensity of bands observed after electrophoresis and autoradiography. The results are expressed as the effective concentration range where an increase in cleavable complexes was observed relative to controls in the absence of drug.

The subject of data set [8] is H69 parental (H69/P) human small cell lung carcinoma cell line. Put plainly: Cytotoxicity, H69 parental cell line (AlamarBlue). Format: cell-based. The settings on record: concentration required to give 50% cell kill, 5–6 days incubation. The method, then: as §4, §5
(In general: Alamar Blue is a resazurin reagent that responds to reducing activity.)

Data set [9] has as its system doxorubicin-resistant Jurkat human leukaemia cell line (JLD). Nature of the data set: Cytotoxicity, doxorubicin-resistant Jurkat cell line JLD. Format: cell-based. The note with it: for IC50: concentration required to give 50% cell kill; for Rf (JLD/JLC): IC50 in JLD divided by IC50 in JLC, atypical drug resistance. The method, then: as §3
Data set [10] deals with topoisomerase II. Nature of the data set: Stabilisation of cleavable complexes, topoisomerase II. Format: biochemical. The settings on record: range where an increase in cleavable complexes was observed relative to controls in the absence of drug.
Excerpt: as §6

The structures appear in SMILES notation.

As to `COc1cccc2c1ccc1nc3cccc(C(=O)NCCN(C)C)c3nc12` [Compound 3, 4-Methoxy-benzo[a]phenazine-11-carboxylic acid (2-dimethylamino-ethyl)-amide], the “Rf (resistance factor)” value in data set [1] and in data set [4] was 1.4 throughout. The IC50 in data set [2] turned out to be 19.9 nM; in [3] (Homo sapiens, Jurkat), 21.6 nM; in data set [4] (Homo sapiens) it was 49 nM; in data set [5] (Homo sapiens, Jurkat), 27 nM; in data set [6] (Homo sapiens, COR-L23), 14.4 nM; in data set [8] (Homo sapiens), 35 nM. Also, in data set [9] (Homo sapiens, Jurkat), inhibition was half-maximal at 24.3 nM (IC50). The “Rf (JLA/JLC)” value in [3] was 0.8. Also, the “Effective concentration range, Topoisomerase I” value in data set [7] was 0.1 to 3.0 µM. In addition, the “Rf (JLD/JLC)” value in [9] was 0.9. Also, the “Effective concentration range, Topoisomerase II” value in [10] is 0.1 to 3.0 µM.

With `Br.CN(C)CCNC(=O)c1cccc2nc3ccc4c(O)cccc4c3nc12` [Compound 4, 4-Hydroxy-benzo[a]phenazine-11-carboxylic acid (2-dimethylamino-ethyl)-amide: hydrobromide salt], the “Rf (resistance factor)” value turned out to be 1.1 in data set [1] and 1.4 in data set [4]. Further, the IC50 in data set [1] came to 16.8 nM; in [3], 26.6 nM; in [4], 48 nM; in [5], 19 nM; in [6], 14.7 nM; in data set [8], 35 nM. In addition, the IC50 in data set [9] turned out to be 22.8 nM. In [3], the “Rf (JLA/JLC)” value stood at 1.4. In data set [7], the “Effective concentration range, Topoisomerase I” value was 0.1 to 3.0 µM. Also, the “Rf (JLD/JLC)” value in data set [9] is reported as 1.2. Besides, the “Effective concentration range, Topoisomerase II” value in data set [10] lay in the range of 0.1 to 3.0 µM.

For `COc1cccc2c1ccc1nc3cccc(C(=O)N[C@H](C)CN(C)C)c3nc12` [Compound 78, 4-Methoxy-benzo[a]phenazine-11-carboxylic acid (2-dimethylamino-1-(R)-methyl-ethyl)-amide], the “Rf (resistance factor)” value in data set [1] amounted to 1.2; in [4] it was 1.3. Also, the 50% inhibitory concentration (IC50) was 8.9 nM in [2]; 14 nM in data set [3] (Homo sapiens, Jurkat); 31 nM in [4] (Homo sapiens); 21 nM in data set [5] (Homo sapiens, Jurkat); 7.6 nM in data set [6] (Homo sapiens, COR-L23); 24 nM in [8] (Homo sapiens). This molecule also had an IC50 in data set [9] (Homo sapiens, Jurkat) of 17 nM. Further, in [3], the “Rf (JLA/JLC)” value is recorded as 0.7. The “Effective concentration range, Topoisomerase I” value in [7] is 0.03 to 1.0 µM. Moreover, the “Rf (JLD/JLC)” value in [9] is 0.8. For the same molecule, the “Effective concentration range, Topoisomerase II” value in data set [10] is 0.03 to 1.0 µM.

With `COc1cccc2c1ccc1nc3cccc(C(=O)NC(CN(C)C)C(C)O)c3nc12` (centres unmarked) [Compound 84, 4-Methoxy-benzo[a]phenazine-11-carboxylic acid (1-dimethylaminomethyl-2-hydroxy-propyl)-amide], the IC50 in [3] (Homo sapiens, Jurkat) amounted to 9.8 nM; in data set [4] (Homo sapiens) it was 19 nM; in data set [5] (Homo sapiens, Jurkat), 4.4 nM; in [8] (Homo sapiens), 19 nM; in [9] (Homo sapiens, Jurkat) it was 7.2 nM. The “Rf (JLA/JLC)” value in data set [3] turned out to be 2.2. In data set [4], the “Rf (resistance factor)” value worked out at 1. In addition, in data set [7], the “Effective concentration range, Topoisomerase I” value lay in the range of 0.03 to 1.0 µM. Moreover, in [9], the “Rf (JLD/JLC)” value was 1.6. In addition, the “Effective concentration range, Topoisomerase II” value in data set [10] lay within 0.03 to 1.0 µM.

On to `CN(C)CCNc1nc2cc(O)ccc2c2c1C(=O)c1ccccc1-2` [TAS-103, reference compound], for which the results for the “Rf (resistance factor)” value in [1] and in data set [4] were 1.3 and 1.1, respectively. Besides, the IC50 in data set [1] came out at 22 nM; in data set [3], 302 nM; in data set [4] it was 22 nM; in data set [5] it was 5.4 nM; in data set [6], 16.3 nM; in data set [8], 21 nM. The molecule further yielded an IC50 in data set [9] of 384 nM. The “Rf (JLA/JLC)” value in data set [3] was determined as 55.9. Also, the “Effective concentration range, Topoisomerase I” value in data set [7] lay in the range of 0.3 to 10.0 µM. The “Rf (JLD/JLC)” value in data set [9] is listed as 71.1. Further, the “Effective concentration range, Topoisomerase II” value in data set [10] fell in the range of 0.3 to 10.0 µM.
